{"source": "patent US20150025077A1", "about": "(COYOTE PHARMACEUTICALS, INC., priority 2012, published 2015)", "key": {"[1]": {"tested_on": "Mouse Neuro2A neuroblastoma cells", "assay": "Neuro2A cells with neurites after GGTI-298 (Example 16)", "assay_type": "cell-based", "details": "10 μM", "protocol": "Mouse Neuro2A neuroblastoma cells were cultured in DMEM supplemented with 10% FBS for 24 hrs. […] Then differentiation was induced by retinoic acid in DMEM supplemented with 2% FBS. The cell culture was incubated with a Geranylgeranyl Transferase inhibitor, GGTI-298. After 24 hrs incubation, cells with neurites were counted."}, "Sprague-Dawley rats": {"tested_on": "Sprague-Dawley rats", "assay": "Kainic acid induced neurodegeneration and seizure behaviors in rats (Examples 20, 21)", "assay_type": "in vivo, rat", "details": "oral", "text": "Seizure behaviors were observed and scored (Ref. R. J. Racine, Modification of seizure activity by electrical stimulation: II. Motor seizure, Electroencephalogr. Clin. […] Modifications were made for the methods). Brain tissues of rats were sectioned on histology slides, and neurons in hippocampus tissues were stained by Nissl. Neurons in dentate gyrus tissues damaged by Kainic acid were quantified. The Memantine composition used in comparison refers to a commercially available NMDA receptor […]. […] Seizure behaviors were observed and scored (Ref. R. J. Racine, Modification of seizure activity by electrical stimulation: II. Motor seizure, Electroencephalogr. Clin. […] Modifications were made for the methods). Brain tissues of rats were sectioned on histology slides, and neurons in hippocampus tissues were stained by Nissl. Neurons damaged by Kainic acid and behavior scores were quantified."}, "HSP70": {"tested_on": "HSP70", "assay": "HSP70 expression in cortex and hippocampus in vivo, western blot", "design": "species or system rat; HSP70 Expression (average, western blot): scale not given here", "details": "for delta HSP70 expression, CNS-102 minus PBS: 12 mg/kg oral", "protocol": "The time course of protein expression, as measured by western blot for HSP70, was determined in triplicate for hippocampus, and cortex tissue samples taken from each of 5 animals per group at each of four time points (24, 48, 72, and 96 h) after treatment with either PBS or 12 mg/kg CNS-102, administered orally. The average expression for each treatment group is calculated at each time point for each tissue using PROC MIXED in SAS and are tabulated, along with the difference (delta) between treatment averages and a p-value comparing the difference to zero, below."}, "HSP90": {"tested_on": "HSP90", "assay": "HSP90 gene expression in rat brain tissue, qRT-PCR", "assay_type": "in vivo", "details": "12 mg/kg oral", "protocol": "(§1) […] Expression of selected HSPs was detected using qRT-PCR with expression of the GAPDH gene used as the control. To represent the effect of CNS-102 on HSP expression, mean fold change is calculated as CNS-102 treated/PBS treated for each HSP at each time point."}, "HSP60": {"tested_on": "HSP60", "assay": "HSP60 gene expression in rat brain tissue, qRT-PCR", "assay_type": "in vivo", "details": "12 mg/kg oral", "protocol": "as §1"}, "RhoA": {"tested_on": "RhoA", "assay": "Active RhoA to total RhoA in Neuro2A cells (G-LISA, ELISA)", "assay_type": "cell-based, mouse", "details": "48 hrs, active RhoA to total RhoA as percentage of DMSO treatments", "protocol": "Mouse neuroblastoma Neuro2A cells were cultured in DMEM supplemented with 10% FBS for 24 hrs. […] Cell lysates were quantified and subjected either to active RhoA assay using G-LISA RhoA activation Assay Biochem Kit (Cytoskeleton Inc), or to total RhoA assay using Total RhoA ELISA Kit (Cytoskeleton Inc). The results were calculated as ratio of active RhoA to total RhoA and averaged from 3 biological repeats of one experiment with background subtraction. The data was presented as percentage of DMSO treatments."}, "[2]": {"details": "mouse, in vivo, po, 12 mg/kg", "description": "Blood and serum samples from days P70 and P100 were collected on three animals from each of the six treatment groups. Hematology measures were white blood cell count, red blood cell count, hemoglobin, hematocrit, mean corpuscular volume, mean corpuscular hemoglobin, mean corpuscular hemoglobin concentration, and platelets. Chemistry values were alanine aminotransferase, aspartate aminotransferase, albumin, total protein, gamma globulin, blood urea nitrogen, cholesterol, and glucose. No analyses were conducted on any samples collected after P100."}}, "data": [{"smiles": "CC(=O)CC/C=C(\\C)CC/C=C(\\C)CC/C=C(\\C)CCC=C(C)C", "note": "[CNS-102]", "values": [{"measurement": "Mean of cell numbers (cells with neurites)", "setting": "[1]", "result": 0.738, "unit": "Arbitrary units"}, {"measurement": "Mean of Hippocampus CA3 Neurons Damaged", "setting": "Sprague-Dawley rats; 3 mg/Kg rat", "result": 10.25, "unit": "Arbitrary units"}, {"measurement": "Mean of Seizure behaviors scores", "setting": "Sprague-Dawley rats; 3 mg/Kg rat", "result": 27.5}, {"measurement": "Mean of Hippocampus CA3 Neurons Damaged", "setting": "Sprague-Dawley rats; 12 mg/Kg rat", "result": 10.16, "unit": "Arbitrary units"}, {"measurement": "Mean of Seizure behaviors scores", "setting": "Sprague-Dawley rats; 12 mg/Kg rat", "result": 22.5}, {"measurement": "Mean of Hippocampus CA3 Neurons Damaged", "setting": "Sprague-Dawley rats; 25 mg/Kg rat", "result": 1.97, "unit": "Arbitrary units"}, {"measurement": "Mean of Seizure behaviors scores", "setting": "Sprague-Dawley rats; 25 mg/Kg rat", "result": 25.75}, {"measurement": "Seizure behaviors scores", "setting": "Sprague-Dawley rats; Kainic acid, vehicle 34", "result": 18.8}, {"measurement": "HSP70 Expression (average, western blot)", "setting": "HSP70; Cortex, 24 hours after 12 mg/kg oral, PBS −0.256", "result": "−0.016"}, {"measurement": "delta HSP70 expression, CNS-102 minus PBS", "setting": "HSP70; Cortex, 24 hours", "result": 0.24}, {"measurement": "HSP70 Expression (average, western blot)", "setting": "HSP70; Cortex, 48 hours after 12 mg/kg oral, PBS −0.56", "result": "−0.45"}, {"measurement": "delta HSP70 expression, CNS-102 minus PBS", "setting": "HSP70; Cortex, 48 hours", "result": 0.11}, {"measurement": "HSP70 Expression (average, western blot)", "setting": "HSP70; Cortex, 72 hours after 12 mg/kg oral, PBS 0.01", "result": 0.14}, {"measurement": "delta HSP70 expression, CNS-102 minus PBS", "setting": "HSP70; Cortex, 72 hours", "result": 0.13}, {"measurement": "HSP70 Expression (average, western blot)", "setting": "HSP70; Cortex, 96 hours after 12 mg/kg oral, PBS −0.15", "result": 0.04}, {"measurement": "delta HSP70 expression, CNS-102 minus PBS", "setting": "HSP70; Cortex, 96 hours", "result": 0.19}, {"measurement": "HSP70 Expression (average, western blot)", "setting": "HSP70; Hippocampus, 24 hours after 12 mg/kg oral, PBS −0.072", "result": "−0.159"}, {"measurement": "delta HSP70 expression, CNS-102 minus PBS", "setting": "HSP70; Hippocampus, 24 hours", "result": "−0.088"}, {"measurement": "HSP70 Expression (average, western blot)", "setting": "HSP70; Hippocampus, 48 hours after 12 mg/kg oral, PBS −0.18", "result": 0.02}, {"measurement": "delta HSP70 expression, CNS-102 minus PBS", "setting": "HSP70; Hippocampus, 48 hours", "result": 0.2}, {"measurement": "HSP70 Expression (average, western blot)", "setting": "HSP70; Hippocampus, 72 hours after 12 mg/kg oral, PBS −0.2", "result": "−0.06"}, {"measurement": "delta HSP70 expression, CNS-102 minus PBS", "setting": "HSP70; Hippocampus, 72 hours", "result": 0.14}, {"measurement": "HSP70 Expression (average, western blot)", "setting": "HSP70; Hippocampus, 96 hours after 12 mg/kg oral, PBS −0.49", "result": "−0.32"}, {"measurement": "delta HSP70 expression, CNS-102 minus PBS", "setting": "HSP70; Hippocampus, 96 hours", "result": 0.17}, {"measurement": "HSP90 mean fold change (CNS-102 treated/PBS treated), mean ± SD", "setting": "HSP90; 24 h", "result": "1.32 ± 0.95"}, {"measurement": "HSP90 mean fold change (CNS-102 treated/PBS treated), mean ± SD", "setting": "HSP90; 48 h", "result": "1.16 ± 0.55"}, {"measurement": "HSP90 mean fold change (CNS-102 treated/PBS treated), mean ± SD", "setting": "HSP90; 72 h", "result": "2.59 ± 1.27"}, {"measurement": "HSP90 mean fold change (CNS-102 treated/PBS treated), mean ± SD", "setting": "HSP90; 96 h", "result": "1.68 ± 0.72"}, {"measurement": "HSP60 mean fold change (CNS-102 treated/PBS treated), mean ± SD", "setting": "HSP60; 24 h", "result": "1.26 ± 0.07"}, {"measurement": "HSP60 mean fold change (CNS-102 treated/PBS treated), mean ± SD", "setting": "HSP60; 48 h", "result": "0.89 ± 0.08"}, {"measurement": "HSP60 mean fold change (CNS-102 treated/PBS treated), mean ± SD", "setting": "HSP60; 72 h", "result": "1.72 ± 0.07"}, {"measurement": "HSP60 mean fold change (CNS-102 treated/PBS treated), mean ± SD", "setting": "HSP60; 96 h", "result": "1.57 ± 0.16"}, {"measurement": "% Relative RhoGTPase Activity", "setting": "RhoA; CNS-102 10 nM", "result": 103.6, "unit": "%"}, {"measurement": "% Relative RhoGTPase Activity", "setting": "RhoA; CNS-102 100 nM", "result": 120.1, "unit": "%"}, {"measurement": "ABSOLUTE BASOPHIL", "setting": "[2]", "result": 0, "unit": "per mm^3"}, {"measurement": "ABSOLUTE EOSINOPHIL", "setting": "[2]", "result": 61.6, "unit": "per mm^3"}, {"measurement": "ABSOLUTE LYMPHOCYTE", "setting": "[2]", "result": 3922.4, "unit": "per mm^3"}, {"measurement": "ABSOLUTE MONOCYTE", "setting": "[2]", "result": 49.8, "unit": "per mm^3"}, {"measurement": "ABSOLUTE NEUTROPHIL SEG", "setting": "[2]", "result": 659.6, "unit": "per mm^3"}, {"measurement": "ALKALINE PHOSPHATASE", "setting": "[2]", "result": 70.7, "unit": "U/L"}, {"measurement": "BASOPHIL", "setting": "[2]", "result": 0.0, "unit": "%"}, {"measurement": "BICARBONATE", "setting": "[2]", "result": 5.0, "unit": "mg/dL"}, {"measurement": "BUN", "setting": "[2]", "result": 28.8, "unit": "mg/dL"}, {"measurement": "CALCIUM", "setting": "[2]", "result": 7.7, "unit": "mg/dL"}, {"measurement": "CHOLESTEROL", "setting": "[2]", "result": 72.4, "unit": "mg/dL"}, {"measurement": "CREATININE", "setting": "[2]", "result": "<1", "unit": "mg/dL"}, {"measurement": "DIRECT BILIRUBIN", "setting": "[2]", "result": 0.0, "unit": "mg/dL"}, {"measurement": "EOSINOPHIL", "setting": "[2]", "result": 1.5, "unit": "%"}, {"measurement": "GLUCOSE", "setting": "[2]", "result": 207.6, "unit": "mg/dL"}, {"measurement": "HCT", "setting": "[2]", "result": 46.0, "unit": "%"}, {"measurement": "HGB", "setting": "[2]", "result": 13.6, "unit": "gram/dL"}, {"measurement": "INDIRECT BILIRUBIN", "setting": "[2]", "result": 0.0, "unit": "mg/dL"}, {"measurement": "LYMPHOCYTE", "setting": "[2]", "result": 84.0, "unit": "%"}, {"measurement": "MCH", "setting": "[2]", "result": 15.5, "unit": "pg"}, {"measurement": "MCHC", "setting": "[2]", "result": 29.5, "unit": "%"}, {"measurement": "MCV", "setting": "[2]", "result": 52.6, "unit": "U^3"}, {"measurement": "MONOCYTE", "setting": "[2]", "result": 0.8, "unit": "%"}, {"measurement": "NEUTROPHIL SEG", "setting": "[2]", "result": 13.8, "unit": "%"}, {"measurement": "NRBC", "setting": "[2]", "result": 0.0, "unit": "per 100 WBC"}, {"measurement": "PHOSPHORUS", "setting": "[2]", "result": 5.7, "unit": "mg/dL"}, {"measurement": "PLATELET COUNT", "setting": "[2]", "result": 1128.6, "unit": "Thousands"}, {"measurement": "RBC", "setting": "[2]", "result": 8.8, "unit": "Millions"}, {"measurement": "SGOT (AST)", "setting": "[2]", "result": 46.3, "unit": "U/L"}, {"measurement": "SGPT (ALT)", "setting": "[2]", "result": 37.8, "unit": "U/L"}, {"measurement": "TOTAL BILIRUBIN", "setting": "[2]", "result": 0.0, "unit": "mg/dL"}, {"measurement": "WBC", "setting": "[2]", "result": 4.7, "unit": "thousands"}]}]}
